US20100168146A1, “Composition Comprising (R)-Spiro[L-Azabicyclo[2.2.2]Octane-3,2'(3'H)-Furo[2,3-B]Pyridine (AZD0328) and its Use in the Treatment of Alzheimer's Disease, ADHD or Cognitive Dysfunction” (priority 2008, published 2010)
“Also recorded” adds a separate entry of the source.

Experiments:
[1] = target: T1, 5-HT3A/B receptors (Homo sapiens, UniProt O95264+P46098); assay: Functional potency at recombinant human receptors in vitro; assay type: cell-based
T1 construct: expressed in transfected cells
T1 sequence (P46098 24-478): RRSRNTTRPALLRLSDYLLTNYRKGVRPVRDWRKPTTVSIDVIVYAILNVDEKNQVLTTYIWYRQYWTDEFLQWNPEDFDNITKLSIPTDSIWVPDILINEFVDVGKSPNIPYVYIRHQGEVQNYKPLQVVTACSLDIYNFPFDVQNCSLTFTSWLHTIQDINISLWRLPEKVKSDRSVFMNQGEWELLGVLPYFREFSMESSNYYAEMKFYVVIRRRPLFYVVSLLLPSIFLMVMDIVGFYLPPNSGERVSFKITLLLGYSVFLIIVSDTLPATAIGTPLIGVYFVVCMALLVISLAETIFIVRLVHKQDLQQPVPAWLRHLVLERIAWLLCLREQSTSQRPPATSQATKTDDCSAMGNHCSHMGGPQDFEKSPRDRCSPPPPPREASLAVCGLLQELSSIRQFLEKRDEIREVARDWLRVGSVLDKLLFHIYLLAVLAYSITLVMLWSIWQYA
T1 sequence (O95264 22-441): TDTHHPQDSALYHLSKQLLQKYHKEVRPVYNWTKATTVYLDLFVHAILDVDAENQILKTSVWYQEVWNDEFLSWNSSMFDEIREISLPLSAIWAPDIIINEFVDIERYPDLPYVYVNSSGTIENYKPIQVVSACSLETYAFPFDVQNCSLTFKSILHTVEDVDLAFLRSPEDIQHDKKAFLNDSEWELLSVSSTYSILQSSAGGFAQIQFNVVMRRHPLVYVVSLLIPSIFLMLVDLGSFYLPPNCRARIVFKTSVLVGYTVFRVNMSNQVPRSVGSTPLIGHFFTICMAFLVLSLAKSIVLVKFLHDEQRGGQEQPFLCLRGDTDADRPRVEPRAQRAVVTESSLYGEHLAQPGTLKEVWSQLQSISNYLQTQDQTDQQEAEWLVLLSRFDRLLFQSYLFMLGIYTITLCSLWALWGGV

[2] = target: α7 receptor binding sites (Rattus norvegicus, UniProt Q05941); assay type: in vivo; conditions: sc, 2-4 h
Chain of α7 receptor binding sites (Q05941 23-502): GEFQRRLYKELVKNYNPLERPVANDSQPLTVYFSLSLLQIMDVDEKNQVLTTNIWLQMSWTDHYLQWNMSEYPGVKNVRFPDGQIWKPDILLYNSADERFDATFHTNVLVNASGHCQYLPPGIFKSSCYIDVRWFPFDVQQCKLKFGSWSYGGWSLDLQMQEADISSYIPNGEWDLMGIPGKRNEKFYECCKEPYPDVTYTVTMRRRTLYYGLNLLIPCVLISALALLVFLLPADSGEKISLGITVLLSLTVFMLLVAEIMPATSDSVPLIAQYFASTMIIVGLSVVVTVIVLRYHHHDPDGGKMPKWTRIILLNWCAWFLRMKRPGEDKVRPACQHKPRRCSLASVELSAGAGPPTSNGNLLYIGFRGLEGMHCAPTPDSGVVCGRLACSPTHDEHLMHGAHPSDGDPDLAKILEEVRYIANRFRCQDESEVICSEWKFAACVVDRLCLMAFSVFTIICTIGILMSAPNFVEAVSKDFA

[3] = tested on: FFX rats; assay: Hippocampal LTP in vivo in FFX rats; set-up: species or system rat; conditions: 0.3 mg/kg
Procedure: AZD0328 reversed a deficit in hippocampal long-term potentiation (LTP) in FFX Sprague Dawley rats (Table 2). […] 0.3 mg/kg of AZD0328 was ineffective in this test.

[4] = tested on: marmoset monkeys; assay: Behavioral effects / tolerability; assay type: in vivo; conditions: im, first five minutes after administration
Procedure: Prior to testing its effects on cognitive task performance in marmoset monkeys, the tolerability of AZD0328 was assessed. (Table 3). Behaviours noted in individual marmosets during the five minutes immediately following drug administration were salivation, vomiting, scratching, defecation and increased activity.

[5] = Cardiovascular/respiratory telemetry and whole body plethysmography; assay type: in vivo, rat; conditions: plasma; rat, oral, whole-body plethysmography; read-out: NOAEL on ventilatory function / respiration, total Cmax
Procedure: (§1) Effects of single oral doses of AZD0328 on mean, systolic and diastolic arterial blood pressures, heart rate, body temperature, locomotor activity and respiratory parameters were evaluated in rats by combining whole body plethysmography with telemetry (Table 3). […] The degree of hypertension, however, was similar at the 3 highest doses, which partly can be explained by the high individual variation in plasma exposure at each dose level. The effect on heart rate was, on the other hand, dose-related.
(§2) Effects of AZD0328 on respiratory function were evaluated in the combined cardiovascular/respiratory study in rats (Table 3). Respiratory rate, tidal volume, inspiratory and expiratory times, and peak inspiratory and expiratory flows were measured […].

[6] = tested on: rats; assay: as above; assay type: in vivo, rat
Procedure: as §1, §2

[7] = [14C]-AZD0328 QWBA / mass balance; assay type: in vivo, rat
Procedure: In the mass balance study conducted in fed rats, a Tmax of 0.5 h to 1 h was observed following single and multiple oral doses (solution). The bioavailability of AZD0328 (total radioactivity) in this study was >90%. […] Generally speaking, the elimination was complete within the 24-hour interval at the dose levels tested.
AZD0328 is a low protein binding molecule across species including human (<15%) across the concentration range 21.6 to 21,630 ng/mL (0.1 to 100 μM). In most species, the binding was concentration and gender independent. […] [^14C]-AZD0328-derived radioactivity was rapidly distributed to the organs and tissues with high levels of radioactivity associated with the contents of the GI tract and the major excretion organs, including kidney and liver. The radioactivity declined rapidly and by 168 h postdose radioactivity levels were not detectable in most tissues, with the exception of a few ocular tissues and nasal turbinates. […] Notable association of [^14C]-AZD0328-related radioactivity with the melanin-containing tissues was observed, with measurable radioactivity still present in the ocular tissue at 216 h postdate. [^14C]-AZD0328-derived radioactivity crossed the placenta.
Pharmacokinetics and mass balance of [^14C]-AZD0328 were investigated in rats. The excretion of [^14C]-AZD0328-derived radioactivity in rats was mainly through the kidney. Over the course of the study, radioactivity recovered in urine and feces accounted for approximately 85% and 8%, respectively.

[8] = tested on: human hepatocytes; assay: Hepatocyte incubations (metabolites); assay type: in vitro ADME; conditions: four separate batches of human hepatocytes
Procedure: Pyridinyl methylation of AZD0328 was a unique polar metabolite (M2) observed in dog hepatocytes. Other minor hydroxylation/oxidation and glucuronide conjugation products were detected in monkey, dog, rat, and guinea pig hepatocyte incubations and mini-pig hepatic microsome incubations. […] Analysis of plasma and urine samples from either orally or iv dosed rats confirmed N-oxide product of AZD0328 was a main product in the excretion and circulation. The percentage of AZD0328 N-oxide in the plasma from male rats was much higher than from females.

[9] = tested on: rats; assay: 1 month repeated-dose oral toxicity; assay type: in vivo; conditions: rat, one month, high dose 65 mg/kg/day (300 μmol/kg/day)
Procedure: The objective of this investigation was to study the toxicity of AZD0328 given orally to rats for 1 month. Four groups of rats, each consisting of 10 males and 10 females, were given 0, 2.2, 15 and 65 mg/kg/day ([…]) of AZD0328.

[10] = tested on: Mouse lymphoma test; assay: Mouse lymphoma test; assay type: cell-based
Description: The genotoxic potential of AZD0328 has been evaluated in the Ames test and in the Mouse lymphoma test. AZD0328 was not mutagenic in either of these tests.

SMILES: c1cnc2c(c1)C[C@@]1(CN3CCC1CC3)O2 [AZD0328, (R)-Spiro[1-azabicyclo[2.2.2]octane-3,2′(3′H)-furo[2,3-b]pyridine]]
- Functional potency α7 versus 5-HT3A/B [1]: equipotent
- Active dose, [125I]-α-bungarotoxin binding ex vivo increased receptor number [2]: 0.1 µg/kg
- Hippocampal LTP [3]: ineffective
- Doses with salivation, vomiting, scratching, defecation and increased activity [4]: administration with 0.03-3 mg/kg
- Cmax [5]: ≤ 31.2 µM
- Dose with no CV effect ([6]; Wistar rat, oral gavage): 1100 µg/kg
- Increase in blood pressure and heart rate ([6]; conscious telemetered rat, oral): > 10%
- Locomotor activity or body temperature ([6]; rat, oral, any dose): μM. No effect on locomotor
- HR increase ([6]; telemetered Wistar rat, oral gavage, highest dose (total Cmax 31.2 μM)): 19%
- Absorbed (urinary radioactivity and AUC, oral versus iv) ([7]; female rat): 95%
- Absorbed (urinary radioactivity and AUC, oral versus iv) ([7]; male rat): 97%
- Radioactivity recovered in feces ([7]; rat): ~8%
- Radioactivity recovered in urine ([7]; rat): approximately 85%
- Metabolites in hepatocyte incubations [8]: no metabolites were detected
- Target organ pathology (kidney) [9]: vacuolation of the tubular cells
- Mutagenicity / genotoxicity [10]: not genotoxic; also recorded: not mutagenic
